Values quoted from earlier work in PubChem BioAssay AID1259409 (Chemical Carcinogenesis Research Information System (CCRIS), 2018).

System: rodent chemically induced tumor inhibition, incidence and multiplicity
Assay: CCRIS tumor inhibitor studies

In the case of `Cn1c(=O)c2c(ncn2C)n(C)c1=O`, the “tumour outcome (control, treated, inhibition, significance)” value (Carcinogen: DIETHYLNITROSAMINE, 55-18-5, Dose [Inhibitor]: 0, 600 MG/L IN DRINKING WATER BEGINNING 3 D PRIOR TO FIRST CARCINOGEN DOSE AND CONTINUING TO 14 D POST LAST CARCINOGEN D, Route [Inhibitor]: ORAL, Species: RAT, Strain/Sex: BD6/FEMALE, Target Tissue: Type of Lesion: ESOPHAGUS: TUMOR, Dose [Carcinogen]: 80 MG/KG BW 1/WK FOR 7 WK, Promoter: NONE USED) is given as 25%, 11%, 56%, not significant, the “tumour outcome (control, treated, inhibition, significance)” value (Carcinogen: DIETHYLNITROSAMINE, 55-18-5, Dose [Inhibitor]: 0, 600 MG/L IN DRINKING WATER BEGINNING 3 D PRIOR TO FIRST CARCINOGEN DOSE AND CONTINUING TO 14 D POST LAST CARCINOGEN D, Route [Inhibitor]: ORAL, Species: RAT, Strain/Sex: BD6/FEMALE, Target Tissue: Type of Lesion: ESOPHAGUS: TUMOR, Dose [Carcinogen]: 80 MG/KG BW 1/WK FOR 8 WK, Promoter: NONE USED) is given as 18%, 22%, -22%, not significant and the “tumour outcome (control, treated, inhibition, significance)” value (Carcinogen: DIETHYLNITROSAMINE, 55-18-5, Dose [Inhibitor]: 0, 600 MG/L IN DRINKING WATER BEGINNING 3 D PRIOR TO FIRST CARCINOGEN DOSE AND CONTINUING TO 14 D POST LAST CARCINOGEN D, Route [Inhibitor]: ORAL, Species: RAT, Strain/Sex: BD6/FEMALE, Target Tissue: Type of Lesion: LIVER: TUMOR, Dose [Carcinogen]: 80 MG/KG BW 1/WK FOR 7 WK, Promoter: NONE USED) is given as 64%, 56%, 13%, not significant. The “tumour outcome (control, treated, inhibition, significance)” value (Carcinogen: DIETHYLNITROSAMINE, 55-18-5, Dose [Inhibitor]: 0, 600 MG/L IN DRINKING WATER FOR DURATION OF STUDY BEGINNING 4 D POST CARCINOGEN TREATMENT (STUDY DURATION: 6 MO), Route [Inhibitor]: ORAL, Species: RAT, Strain/Sex: BD6/FEMALE, Target Tissue: Type of Lesion: LIVER: TUMOR, Dose [Carcinogen]: 80 MG/KG BW 1/WK FOR 9 WK, Promoter: NONE USED) was 100%, 100%, 0%, not significant, the “tumour outcome (control, treated, inhibition, significance)” value (Carcinogen: DIETHYLNITROSAMINE, 55-18-5, Dose [Inhibitor]: 0, 600 MG/L IN DRINKING WATER FOR DURATION OF STUDY BEGINNING 4 D POST CARCINOGEN TREATMENT(STUDY DURATION: 6 MO), Route [Inhibitor]: ORAL, Species: RAT, Strain/Sex: BD6/FEMALE, Target Tissue: Type of Lesion: ESOPHAGUS: TUMOR, Dose [Carcinogen]: 80 MG/KG BW 1/WK FOR 9 WK, Promoter: NONE USED) was 29%, 21%, 28%, not significant and the “tumour outcome (control, treated, inhibition, significance)” value (Carcinogen: DIETHYLNITROSAMINE, 55-18-5, Dose [Inhibitor]: 0, 600 MG/L IN DRINKING WATER FOR DURATION OF STUDY BEGINNING 7 D PRIOR TO CARCINOGEN TREATMENT (STUDY DURATION: 6 MO), Route [Inhibitor]: ORAL, Species: RAT, Strain/Sex: BD6/FEMALE, Target Tissue: Type of Lesion: ESOPHAGUS: TUMOR, Dose [Carcinogen]: 80 MG/KG BW 1/WK FOR 5 WK, Promoter: NONE USED) was 6%, 11%, -83%, not significant. The “tumour outcome (control, treated, inhibition, significance)” value (Carcinogen: DIETHYLNITROSAMINE, 55-18-5, Dose [Inhibitor]: 0, 600 MG/L IN DRINKING WATER FOR DURATION OF STUDY BEGINNING 7 D PRIOR TO CARCINOGEN TREATMENT (STUDY DURATION: 6 MO), Route [Inhibitor]: ORAL, Species: RAT, Strain/Sex: BD6/FEMALE, Target Tissue: Type of Lesion: LIVER: TUMOR, Dose [Carcinogen]: 80 MG/KG BW 1/WK FOR 5 WK, Promoter: NONE USED) was 44%, 41%, 7%, not significant, the “tumour outcome (control, treated, inhibition, significance)” value (Carcinogen: DIETHYNITROSAMINE, 55-18-5, Dose [Inhibitor]: 0, 600 MG/L IN DRINKING WATER BEGINNING 3 D PRIOR TO FIRST CARCINOGEN DOSE AND CONTINUING TO 14 D POST LAST CARCINOGEN D, Route [Inhibitor]: ORAL, Species: RAT, Strain/Sex: BD6/FEMALE, Target Tissue: Type of Lesion: LIVER: TUMOR, Dose [Carcinogen]: 80 MG/KG BW 1/WK FOR 8 WK, Promoter: NONE USED) was 82%, 72%, 12%, not significant and the “tumour outcome (control, treated, inhibition, significance)” value (Carcinogen: N,N-DIETHYLNITROSAMINE, 55-18-5, Dose [Inhibitor]: 600 MG/L IN DRINKING WATER DAILY STARTING 3 D BEFORE START OF CARCINOGEN INJECTION AND CONTINUING UNTIL 2 WK AFTER LAST, Route [Inhibitor]: ORAL, Species: RAT, Strain/Sex: BDIV AND WISTAR/MALE, Target Tissue: Type of Lesion: LIVER: TUMOR, Dose [Carcinogen]: 80 MG/KG BW IN 0.2 ML 0.9% SALINE 1/WK FOR 10 WK, Promoter: NONE USED) was 18/22 (82%), 12/18 (67%), 18%, not calculated. The “tumour outcome (control, treated, inhibition, significance)” value (Carcinogen: N-METHYL-N'-NITRO-N-NITROSOGUANIDINE, 70-25-7, Dose [Inhibitor]: 0, 0.25% IN DRINKING WATER FOR 32 WK BEGINNING POST CARCINOGEN TREATMENT (STUDY DURATION: 40 WK), Route [Inhibitor]: ORAL, Species: RAT, Strain/Sex: WISTAR/MALE, Target Tissue: Type of Lesion: GLANDULAR STOMACH (PYLORUS): ADENOCARCINOMA, Dose [Carcinogen]: 100 PPM IN DRINKING WATER FOR 8 WK, Promoter: SODIUM CHLORIDE, 7647-14-5) was 4/29 (14%), 0/28 (0%), 100%, p<0.05, the “tumour outcome (control, treated, inhibition, significance)” value (Carcinogen: N-METHYL-N-NITROSOUREA, 684-93-5, Dose [Inhibitor]: 0, 500 MG/L IN DRINKING WATER BEGINNING AT 60 D OF AGE AND CONTINUING FOR DURATION OF STUDY (STUDY DURATION: 26 WK), Route [Inhibitor]: ORAL, Species: RAT, Strain/Sex: SPRAGUE-DAWLEY/FEMALE, Target Tissue: Type of Lesion: MAMMARY GLAND: CARCINOMA, Dose [Carcinogen]: 2.5 MG/100 G BW ONCE AT 57 D OF AGE, Promoter: NONE USED) was 34/40 (85%), 31/40 (78%), 8%, not significant and the “tumour outcome (control, treated, inhibition, significance)” value (Carcinogen: N-METHYL-N-NITROSOUREA, 684-93-5, Dose [Inhibitor]: 0, 500 UG/L IN DRINKING WATER BEGINNING AT 29 D OF AGE AND CONTINUING TO D 60 OF AGE (STUDY DURATION: 30 WK), Route [Inhibitor]: ORAL, Species: RAT, Strain/Sex: SPRAGUE-DAWLEY, Target Tissue: Type of Lesion: MAMMARY GLAND: CARCINOMA, Dose [Carcinogen]: 2.5 MG/100 G BW ONCE AT 57 D OF AGE, Promoter: NONE USED) was 34/40 (85%), 32/40 (80%), 6%, not significant. The “tumour outcome (control, treated, inhibition, significance)” value (Carcinogen: SUBCUTANEOUS, Dose [Inhibitor]: 4-(METHYLNITROSAMINO)-1-(3-PYRIDYL-1-BUTANONE), 64091-91-4, Route [Inhibitor]: 0, 680 PPM IN DRINKING WATER FOR 22 WK BEGINNING 1 WK PRIOR TO CARCINOGEN TREATMENT (STUDY DURATION: 101 WK), Species: RAT, Strain/Sex: ORAL, Target Tissue: Type of Lesion: LIVER :TUMOR, Dose [Carcinogen]: NONE USED) was 11/32 (34%), 8/20 (40%), -18%, not significant and the “tumour outcome (control, treated, inhibition, significance)” value (Carcinogen: URETHANE, 51-79-6, Dose [Inhibitor]: 0.05 UMOL/G BW GIVEN AT 6 HR INTERVALS DURING THE PERIOD OF 0 TO 36 HR AFTER CARCINOGEN TREATMENT FOR 7 INJECTIONS FOLLO, Route [Inhibitor]: INTRAPERITONEAL, Species: MOUSE, Strain/Sex: ICR/FEMALE, Target Tissue: Type of Lesion: LUNG: PAPILLARY ADENOMA, Dose [Carcinogen]: 0.1 MG/G BW SINGLE INJECTION, Promoter: NONE USED) was 31/59 (53%), 7/32 (22%), 58%, p<0.01.
